pEC50, pIC50: −log10 of the molar value. Like-named read-outs stand apart in the source and are kept apart here.
Columns and labels:
IL-2 release, PBMCs = test: IL-2 release in CD3/CD28 stimulated PBMC cells; type: cell-based; details: Homo sapiens, read-out: IC50 Values for Inhibition of Cytokine Release, PBMCs, IL-2
[1] = system: IL-8 release, d-U937 cells; test: LPS-induced IL-8 release in d-U937 cells; type: cell-based; details: Homo sapiens, dU937
Method in brief: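 IL-8 release after a 4 hr challenge with LPS (0.1 μg/mL, E. coli 0111:B4) following a 2 hr compound pretreatment. Cells were human U937 monocytes differentiated to macrophage-type with PMA 100 ng/mL for 48–72 hr. Relative 50% effective concentration derived from concentration–response data.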

[2] = system: TNFα release, d-U937 cells; test: LPS-induced TNFα release in d-U937 cells; type: cell-based; details: Homo sapiens, dU937; for pIC50: Table 4c2, different laboratory, read-out: IC50 Values for Inhibition of Cytokine Release, dU937 cells, TNFα; for pEC50: relative to 10 μg/mL BIRB796, Table 4c1, read-out: LPS Induced Release of Cytokine in d-U937 Cells, TNFα REC50
Method in brief: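 U937 cells differentiated with PMA (100 ng/mL, 48–72 hr), pre-treated with compound for 2 hr, then stimulated with E. coli LPS (0.1 μg/mL) for 4 hr. Supernatant cytokine measured by sandwich ELISA; inhibition versus vehicle control, REC50 from concentration-response curve.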

PBMC cells = test: Cell mitosis assay; type: cell-based; details: Homo sapiens, read-out: % Inhibition of mitosis in PBMC cells at 5 μg/mL
Method in brief: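 Healthy-donor PBMCs (3 million cells per sample) stimulated with 2% PHA for 48 hr, then exposed 20 hr to varying compound concentrations. Demecolcine (0.1 μg/mL) added 2 hr before collection to arrest cells in metaphase; read by flow cytometry gated on lymphocytes.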

HRV16 in MRC5 cells = test: HRV16 induced CPE in MRC5 cells; type: cell-based; details: Human rhinovirus sp., HRV-16
Method in brief: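 MRC-5 cells pre-treated with compound 2 hr, infected with HRV16 at MOI 1 (DMEM, 5% FCS, 1.5 mM MgCl2) for 1 hr at 33 °C, then re-dosed after virus washout and cultured 4 days.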

cSrc = cSrc (Homo sapiens, UniProt P12931); test: c-Src enzyme inhibition (FRET); type: biochemical
Sequence of cSrc (P12931 whole entry): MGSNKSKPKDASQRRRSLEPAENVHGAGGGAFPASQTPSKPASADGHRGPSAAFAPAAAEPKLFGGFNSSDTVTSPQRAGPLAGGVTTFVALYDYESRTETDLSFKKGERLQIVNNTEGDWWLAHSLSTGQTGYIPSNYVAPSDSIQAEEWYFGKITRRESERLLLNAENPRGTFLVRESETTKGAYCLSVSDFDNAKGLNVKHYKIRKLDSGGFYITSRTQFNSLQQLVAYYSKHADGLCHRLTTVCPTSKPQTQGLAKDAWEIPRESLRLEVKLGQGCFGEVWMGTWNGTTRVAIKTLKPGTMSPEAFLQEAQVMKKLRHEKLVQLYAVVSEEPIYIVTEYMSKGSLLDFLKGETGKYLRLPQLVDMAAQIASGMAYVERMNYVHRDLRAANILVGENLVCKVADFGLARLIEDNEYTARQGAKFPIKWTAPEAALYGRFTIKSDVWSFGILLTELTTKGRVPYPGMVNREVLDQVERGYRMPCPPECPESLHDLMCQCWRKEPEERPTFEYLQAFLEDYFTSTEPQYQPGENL
Method in brief: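 Enzyme was preincubated with test compound (added as 4, 0.4, 0.04 or 0.004 μg/mL solutions) for 2 hr at RT. FRET peptide (8 μM solution) and ATP solution (800 μM for c-Src, 60 μM for Syk) were then added for 1 hr, followed by 1 hr protease development.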

d-U937 cells = test: Cell viability: MTT assay; type: cell-based, human; details: 1 μg/mL
Method in brief: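 Differentiated U937 cells exposed to compound at 1 or 10 μg/mL, either 4 h in 5% FCS or 24 h in 10% FCS RPMI1640. MTT then added for 1 h, formazan dissolved in DMSO and read at 550 nm. Viability loss given as % versus 0.5% DMSO vehicle; apparent gains appear negative.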

[3] = Table 4c1, read-out: LPS Induced Release of Cytokine in d-U937 Cells, IL-8 IC50
[4] = Table 4c2, different laboratory, read-out: IC50 Values for Inhibition of Cytokine Release, dU937 cells, IL-8
[5] = Table 4a2, different laboratory

pIC50 [1, 3]	pIC50 [1, 4]	pIC50 [2]	pEC50 [2]	pIC50 (cSrc; Table 4a1)	pIC50 (cSrc; [5])	Compound	pIC50 (IL-2 release, PBMCs)	inhibition at 5 µg/mL (PBMC cells)	pIC50 (HRV16 in MRC5 cells)	Cell viability at time point in d-U937 cells, 4 h (d-U937 cells)	Cell viability at time point in d-U937 cells, 24 h (d-U937 cells)
9.52	8.85	8.96	9.10	> 9.00	7.39	COc1cc(Nc2nccc(Oc3ccc(NC(=O)Nc4cc(C(C)C)nn4-c4ccc(C)cc4)c4ccccc34)n2)cc(C(=O)NCCN2CCOCC2)c1 [Example 8, 3-((4-((4-(3-(3-Isopropyl-1-(p-tolyl)-1H-pyrazol-5-yl)ureido)naphthalen-1-yl)oxy)pyrimidin-2-yl)amino)-5-methoxy-N-(2-morpholinoethyl)benzamide]	7.45	15.3%	8.27	−ve (−ve and +ve indicate that the value is below and above respectively, the no significant effect threshold, defined as 30% inhibition at 1 μg/mL at the time point indicated)	−ve (−ve and +ve indicate that the value is below and above respectively, the no significant effect threshold, defined as 30% inhibition at 1 μg/mL at the time point indicated)
8.74	8.55	8.68	9.15	8.30	7.57	COc1cc(Nc2cc(Oc3ccc(NC(=O)Nc4cc(C(C)(C)C)nn4-c4ccc(C)cc4)c4ccccc34)ccn2)cc(C(=O)NCCN2CCOCC2)c1 [Example 1, 3-((4-((4-(3-(3-(tert-Butyl)-1-(p-tolyl)-1H-pyrazol-5-yl)ureido)naphthalen-1-yl)oxy)pyridin-2-yl)amino)-5-methoxy-N-(2-morpholinoethyl)benzamide]	7.07	39.3%	8.54	−ve (−ve and +ve indicate that the value is below and above respectively, the no significant effect threshold, defined as 30% inhibition at 1 μg/mL at the time point indicated)	−ve (−ve and +ve indicate that the value is below and above respectively, the no significant effect threshold, defined as 30% inhibition at 1 μg/mL at the time point indicated)
8.96	–	9.15	9.52	> 9.00	8.10	COc1ccc(-n2nc(C(C)C)cc2NC(=O)Nc2ccc(Oc3ccnc(Nc4cc(OC)cc(C(=O)NCCN5CCOCC5)c4)n3)c3ccccc23)cc1 [Example 53, 3-((4-((4-(3-(3-isopropyl-1-(4-methoxyphenyl)-1H-pyrazol-5-yl)ureido)naphthalen-1-yl)oxy)pyrimidin-2-yl)amino)-5-methoxy-N-(2-morpholinoethyl)benzamide]	7.36	39.4%	8.70	−ve (−ve and +ve indicate that the value is below and above respectively, the no significant effect threshold, defined as 30% inhibition at 1 μg/mL at the time point indicated)	−ve (−ve and +ve indicate that the value is below and above respectively, the no significant effect threshold, defined as 30% inhibition at 1 μg/mL at the time point indicated)
8.85	–	–	9.05	8.70	7.68	COc1cc(Nc2nccc(Oc3ccc(NC(=O)Nc4cc(C(F)(F)C(F)(F)F)nn4-c4ccc(C)cc4)c4ccccc34)n2)cc(C(=O)NCCN2CCOCC2)c1 [Example 9]	6.88	20.7%	8.77	−ve (−ve and +ve indicate that the value is below and above respectively, the no significant effect threshold, defined as 30% inhibition at 1 μg/mL at the time point indicated)	−ve (−ve and +ve indicate that the value is below and above respectively, the no significant effect threshold, defined as 30% inhibition at 1 μg/mL at the time point indicated)
